Reference: patent US20240209027A1, “PEPTIDE AND PEPTIDE-CONTAINING COMPOSITION” (PeptiAID Inc.,, priority 2021, published 2024)
pIC50: −log10 of the molar value. Like-named read-outs stand apart in the source and are kept apart here. Starred links: 1 amine or outer side, 2 acyl side, 3 side chain; linkers in the order of their positions; H or OH if unused. Positions of bridges follow the written chain, without caps; N, C: chain ends. Non-standard residues stand in square brackets, D forms with d. Residues, ends and D or L forms follow the SMILES beside them. *: point of attachment. Ala(piperidin-4-yl) = O=C([C@H](CC1CCN([*:3])CC1)N[*:1])[*:2]; Phe(4-COOH) = N[C@@H](Cc1ccc(C(=O)O)cc1)C(=O)O; Phe(4-F) = N[C@@H](Cc1ccc(F)cc1)C(=O)O; C12 diacid = O=C(O)CCCCCCCCCCC(=O)*; NMeE = CN[C@@H](CCC(=O)O)C(=O)O; Cha = N[C@@H](CC1CCCCC1)C(=O)O; Cit = NC(=O)NCCC[C@H](N)C(=O)O; NMeNle = CCCC[C@H](NC)C(=O)O; PEG2 = NCCOCCOCCC(=O)O; Aib = CC(C)(N)C(=O)O

Tests used:
[1] = target: spike protein of SARS-CoV-2 (GENE Accession No. YP 009724390) (Severe acute respiratory syndrome coronavirus 2, UniProt P0DTC2); assay: Screening for target protein-binding peptides
Description: First, the spike protein of SARS-CoV-2 (GENE Accession No. YP 009724390) was set to a target and the screening method described in International Publication WO2014/119600, International Publication WO2012/033154, or International Publication WO 2007/066627 was used to discover the target protein-binding peptides.

in vitro = conditions: African green monkey
[2] = target: SARS-CoV-2-derived S protein, Wuhan strain (Severe acute respiratory syndrome coronavirus 2, UniProt P0DTC2); type: cell-based
[3] = test system: SARS-CoV2 (USA WA1/2020 strain); conditions: 72 h
[4] = test system: SARS-CoV-2 (JPN/TY/WK-521 strain); type: cell-based; design: key: the case where the peptide was found to have anti-SARS-CoV-2 activity when added at 50 nM was designated as “2”; the case where no activity was found upon the addition at 50 nM but the activity was found at 1 μM was designated as “1”; conditions: peptide added at 50 nM or 1 μM
[5] = test system: SARS-CoV-2 mouse subculture strain QHmusX; type: in vivo, BALB/c mice; conditions: for lung histology (HE staining): day 10; for weight loss / respiratory symptoms: mouse, in vivo
[6] = test system: SARS-CoV-2 (USA WA1/2020 strain); type: in vivo, Golden Syrian hamsters; conditions: for Chronic active inflammation (anterior lobe): Mild / Chronic active inflammation (anterior lobe): Moderate / Chronic active inflammation (anterior lobe): Severe / Chronic active inflammation (posterior lobe): Mild / Chronic active inflammation (posterior lobe): Minor / Chronic active inflammation (posterior lobe): Moderate / Chronic active inflammation (posterior lobe): Severe: cases; for Gross findings of the lung: Mottled fading (number of animals) / Gross findings of the lung: No change (number of animals): 6 animals

C[C@H]1C(=O)N(C)[C@@H](Cc2ccccc2)C(=O)N[C@@H](CO)C(=O)N[C@@H](CC2CCCCC2)C(=O)N[C@@H](Cc2ccc(O)cc2)C(=O)N[C@@H](CO)C(=O)N[C@@H](Cc2ccc(O)cc2)C(=O)N[C@@H](Cc2ccc(O)cc2)C(=O)N[C@@H](CCCNC(=N)N)C(=O)N[C@@H](CCCNC(=N)N)C(=O)N[C@@H](CC2CCCCC2)C(=O)N[C@H](C(=O)N[C@H](CCC(=O)O)C(N)=O)CSCC(=O)N1C [Peptide 5555_p000, MeA-MeF-S-Cha-Y-S-Y-Y-R-R-Cha-C]
binding to the spike protein of SARS-CoV-2 [1]: binds to the spike protein of SARS-CoV-2
CC50 at 72 h (in vitro): > 1000 nM
Imax: % (at 500 nM) [2]: 100%
pIC50 [3]: 7.62
Anti-SARS-CoV-2 activity [4]: 2

CCCC[C@H]1C(=O)NC(C)(C)C(=O)N[C@@H](CC2CCCCC2)C(=O)N[C@@H](Cc2ccc(F)cc2)C(=O)NC(C)(C)C(=O)N[C@@H](Cc2ccc(O)cc2)C(=O)N[C@@H](Cc2ccc(O)cc2)C(=O)N[C@@H](Cc2ccc(C(=O)O)cc2)C(=O)N[C@@H](CC2CCNCC2)C(=O)N[C@@H](CC2CCCCC2)C(=O)N[C@H](C(=O)N[C@H](CCC(=O)O)C(N)=O)CSCC(=O)N(C)[C@@H](CCC(=O)O)C(=O)N1C [Peptide 5555_p020] ({CH2CO}-[NMeE][NMeNle][Aib][Cha][Phe(4-F)][Aib]YY[Phe(4-COOH)][Ala(piperidin-4-yl)][Cha]C[dE]-NH2; thioether N-12)
CC50 at 72 h (in vitro): > 1000 nM
Imax: % (at 500 nM) [2]: 99%
pIC50 [3]: 8.64
Anti-SARS-CoV-2 activity [4]: 2
lung histology (HE staining) ([5]; 10 mg administration group): mild aggregation of lymphocytes (*) was observed around blood vessels near the bronchioles in some lung lobes
weight loss / respiratory symptoms [5]: no findings suggestive of weight loss or respiratory symptoms were observed

CCCC[C@H]1C(=O)NC(C)(C)C(=O)N[C@@H](CC2CCCCC2)C(=O)N[C@@H](Cc2ccc(F)cc2)C(=O)N[C@H](CC(=O)O)C(=O)N[C@@H](Cc2ccc(O)cc2)C(=O)N[C@@H](Cc2ccc(O)cc2)C(=O)N[C@@H](CCCNC(N)=O)C(=O)N[C@H](CCCCN)C(=O)N[C@@H](CC2CCCCC2)C(=O)N[C@H](C(=O)N[C@H](CCC(=O)O)C(=O)O)CSCC(=O)N(C)[C@@H](CCC(=O)O)C(=O)N1C [Peptide 5555_p028] ({CH2CO}-[NMeE][NMeNle][Aib][Cha][Phe(4-F)][dD]YY[Cit][dK][Cha]C[dE]-OH; thioether N-12)
Chronic active inflammation (anterior lobe): Mild ([6]; 1 mg/kg (n = 6)): 5
Chronic active inflammation (anterior lobe): Moderate ([6]; 1 mg/kg (n = 6)): 1
Chronic active inflammation (anterior lobe): Severe ([6]; 1 mg/kg (n = 6)): 0
Chronic active inflammation (posterior lobe): Mild ([6]; 1 mg/kg (n = 6)): 5
Chronic active inflammation (posterior lobe): Minor ([6]; 1 mg/kg (n = 6)): 0
Chronic active inflammation (posterior lobe): Moderate ([6]; 1 mg/kg (n = 6)): 1
Chronic active inflammation (posterior lobe): Severe ([6]; 1 mg/kg (n = 6)): 0
body weight, Mean ([6]; 1 mg/kg i.p., Day 0): 126.75
body weight, Mean ([6]; 1 mg/kg i.p., Day 1): 124.03
body weight, Mean ([6]; 1 mg/kg i.p., Day 2): 122.3
body weight, Mean ([6]; 1 mg/kg i.p., Day 3): 120.17
body weight, Mean ([6]; 1 mg/kg i.p., Day 4): 120.33
body weight, Mean ([6]; 1 mg/kg i.p., Day 5): 120.75
body weight, Mean ([6]; 1 mg/kg i.p., Day −6): 118.63
Gross findings of the lung: Mottled fading (number of animals) ([6]; 1 mg/kg): 6 number of animals
Gross findings of the lung: No change (number of animals) ([6]; 1 mg/kg): 0 number of animals
SARS-CoV-2 genome copy number in lung (RT-qPCR), Log10 of Geometric mean (copy number/gram) ([6]; 1 mg/kg, Day 5): 8.15 copy number/gram
SARS-CoV-2 genome copy number in lung vs solvent control ([6]; 5 mg/kg): statistically significant decrease
Chronic active inflammation (anterior lobe): Mild ([6]; 5 mg/kg (n = 6)): 1
Chronic active inflammation (anterior lobe): Moderate ([6]; 5 mg/kg (n = 6)): 5
Chronic active inflammation (anterior lobe): Severe ([6]; 5 mg/kg (n = 6)): 0
Chronic active inflammation (posterior lobe): Mild ([6]; 5 mg/kg (n = 6)): 3
Chronic active inflammation (posterior lobe): Minor ([6]; 5 mg/kg (n = 6)): 2
Chronic active inflammation (posterior lobe): Moderate ([6]; 5 mg/kg (n = 6)): 1
Chronic active inflammation (posterior lobe): Severe ([6]; 5 mg/kg (n = 6)): 0
Chronic active inflammation (posterior lobe): Minor ([6]; 5 mg/kg (n = 6), listed as 5555_028): Minor lung inflammation was observed in the posterior lobe in two cases
body weight, Mean ([6]; 5 mg/kg i.p., Day 0): 126.52
body weight, Mean ([6]; 5 mg/kg i.p., Day 1): 122.87
body weight, Mean ([6]; 5 mg/kg i.p., Day 2): 120.87
body weight, Mean ([6]; 5 mg/kg i.p., Day 3): 120.42
body weight, Mean ([6]; 5 mg/kg i.p., Day 4): 118.52
body weight, Mean ([6]; 5 mg/kg i.p., Day 5): 119.68
body weight, Mean ([6]; 5 mg/kg i.p., Day −6): 118.67
Gross findings of the lung: Mottled fading (number of animals) ([6]; 5 mg/kg): 6 number of animals
Gross findings of the lung: No change (number of animals) ([6]; 5 mg/kg): 0 number of animals
SARS-CoV-2 genome copy number in lung (RT-qPCR), Log10 of Geometric mean (copy number/gram) ([6]; 5 mg/kg, Day 5): 7.72 copy number/gram
SARS-CoV-2 genome copy number in lung vs solvent control ([6]; 25 mg/kg): decreasing trend
Chronic active inflammation (anterior lobe): Mild ([6]; 25 mg/kg (n = 6)): 2
Chronic active inflammation (anterior lobe): Moderate ([6]; 25 mg/kg (n = 6)): 4
Chronic active inflammation (anterior lobe): Severe ([6]; 25 mg/kg (n = 6)): 0
Chronic active inflammation (posterior lobe): Mild ([6]; 25 mg/kg (n = 6)): 6
Chronic active inflammation (posterior lobe): Minor ([6]; 25 mg/kg (n = 6)): 0
Chronic active inflammation (posterior lobe): Moderate ([6]; 25 mg/kg (n = 6)): 0
Chronic active inflammation (posterior lobe): Severe ([6]; 25 mg/kg (n = 6)): 0
body weight, Mean ([6]; 25 mg/kg i.p., Day 0): 129.63
body weight, Mean ([6]; 25 mg/kg i.p., Day 1): 126.85
body weight, Mean ([6]; 25 mg/kg i.p., Day 2): 126.68
body weight, Mean ([6]; 25 mg/kg i.p., Day 3): 126.22
body weight, Mean ([6]; 25 mg/kg i.p., Day 4): 124.45
body weight, Mean ([6]; 25 mg/kg i.p., Day 5): 121.62
body weight, Mean ([6]; 25 mg/kg i.p., Day −6): 118.95
Gross findings of the lung: Mottled fading (number of animals) ([6]; 25 mg/kg): 4 number of animals
Gross findings of the lung: No change (number of animals) ([6]; 25 mg/kg): 2 number of animals
Gross findings of the lung: No change (number of animals) ([6]; 25 mg/kg, listed as 5555_028): no lung fading was observed in two cases
SARS-CoV-2 genome copy number in lung (RT-qPCR), Log10 of Geometric mean (copy number/gram) ([6]; 25 mg/kg, Day 5): 8.76 copy number/gram
severity of lung inflammation vs solvent control ([6]; 1, 5, or 25 mg/kg i.p.): The severity of lung inflammation was reduced
weight loss vs solvent control ([6]; hamster, in vivo): the weight loss was suppressed to the same degree at any of the doses
Imax: % (at 500 nM) [2]: 91%
pIC50 [3]: 8.46
Anti-SARS-CoV-2 activity [4]: 2
lung histology (HE staining) ([5]; 30 mg administration group): mild aggregation of cells (*) was observed around blood vessels in almost all lung lobes
weight loss / respiratory symptoms [5]: the rate of weight loss improved significantly (P<0.05) after the fourth day

CCCC[C@H]1C(=O)NC(C)(C)C(=O)N[C@@H](CC2CCCCC2)C(=O)N[C@@H](Cc2ccc(F)cc2)C(=O)N[C@H](CC(=O)O)C(=O)N[C@@H](Cc2ccc(O)cc2)C(=O)N[C@@H](Cc2ccc(O)cc2)C(=O)N[C@@H](CCCNC(N)=O)C(=O)N[C@H](CCCCN)C(=O)N[C@@H](CC2CCCCC2)C(=O)N[C@H](C(=O)N[C@H](CCC(=O)O)C(=O)NCCOCCOCCC(=O)N[C@H](CCCCNC(=O)CCCCCCCCCCC(=O)O)C(N)=O)CSCC(=O)N(C)[C@@H](CCC(=O)O)C(=O)N1C [Peptide 5555_p227] ({CH2CO}-[NMeE][NMeNle][Aib][Cha][Phe(4-F)][dD]YY[Cit][dK][Cha]C[dE][PEG2][dK](C12 diacid)-NH2; thioether N-12)
pIC50 (SARS-CoV-2 Wuhan strain): 7.94
pIC50 (SARS-CoV-2 Delta strain): 8.10
